Reference: the PolyMetriX glass transition set
± gives the standard deviation of the reports.

Row | SMILES | glass transition temperature
1 | */C=C(\C#N)C(=O)NC1CCCCC1NC(=O)/C(C#N)=C/c1ccc(/C=C/c2ccc(N(c3ccccc3)c3ccc(N(c4ccccc4)c4ccc(/C=C/c5ccc(*)s5)cc4)cc3)cc2)s1 (repeat unit) | 240.00 °C
2 | *CCCC(C)(C)CNC(=O)CCCCC(=O)N* (repeat unit) | 77.00 °C
3 | *Nc1cc(NC(=O)Nc2ccc(CCc3ccccc3NC(*)=O)cc2)ccc1C (repeat unit) | 227.00 °C
4 | *Oc1ccc(S(=O)(=O)c2ccc(Oc3ccc(/C=C4\CC/C(=C\c5ccc(*)cc5)C4=O)cc3)cc2)cc1 (repeat unit) | 235.00 °C
5 | *Oc1ccc(C(=O)NNC(=O)c2ccc(*)cc2)cc1 (repeat unit) | 263.00 °C
6 | *Cc1cc2cc(C(=O)Nc3ccc(NC(=O)c4cc5cc(*)c(OC(=O)COc6ccc7ccc(=O)oc7c6)cc5oc4=O)cc3)c(=O)oc2cc1OC(=O)COc1ccc2ccc(=O)oc2c1 (repeat unit) | 252.00 °C
7 | *Oc1ccc(/C(=C/c2cc(OC)c(/C=C(/c3ccc(*)cc3)c3ccc(F)cc3)cc2OC)c2ccc(F)cc2)cc1 (repeat unit) | 187.00 °C
8 | *CC(*)c1cccc(B(O[Si](C)(C)C)O[Si](C)(C)C)c1 (repeat unit) | 35.00 °C
9 | *C(=O)c1ccc2c(c1)C(=O)N(c1ccc(C)c(N3C(=O)c4ccc(*)cc4C3=O)c1)C2=O (repeat unit) | 317.2 ± 3.2 °C
10 | *Nc1ccc(Cc2ccc(NC(=O)NCCCCCCCCCCCCCCCCCCNC(*)=O)cc2)cc1 (repeat unit) | 48.00 °C
11 | *c1ccc(Oc2cccc(N3C(=O)c4ccc(Oc5ccc6c(c5)C(=O)N(*)C6=O)cc4C3=O)c2)cc1 (repeat unit) | 232.00 ± 18 °C
12 | *c1cccc(Cc2cccc(N3C(=O)c4ccc([Si](C)(C)c5ccc(-c6ccc([Si](C)(C)c7ccc8c(c7)C(=O)N(*)C8=O)cc6)cc5)cc4C3=O)c2)c1 (repeat unit) | 285.00 °C
13 | *c1ccc(Oc2ccc(-c3nc4cc(Oc5ccc(NC(=O)c6cc(C(=O)Nc7ccc(Oc8ccc9nc(-c%10ccccc%10)c(*)nc9c8)cc7)cc(N7C(=O)c8c(Cl)c(Cl)c(Cl)c(Cl)c8C7=O)c6)cc5)ccc4nc3-c3ccccc3)cc2)cc1 (repeat unit) | 295.00 °C
14 | */C=C/c1ccc(-c2nnc(-c3ccc(/C=C/c4ccc5c(c4)c4cc(-c6ccc7c(c6)c6cc(*)ccc6n7CCCCCCCC)ccc4n5CCCCCCCC)cc3)n2-c2ccccc2)cc1 (repeat unit) | 157.00 °C
15 | *CCCCCCn1ccc(-c2cccc(-c3ccn(*)n3)c2)n1 (repeat unit) | 70.00 °C
16 | *CC(O)COc1ccc(S(=O)(=O)c2ccc(OCC(O)COc3cccc(O*)c3)cc2)cc1 (repeat unit) | 105.00 °C
17 | *Nc1c(-c2ccccc2)cc(-c2ccc(-c3cc(-c4ccccc4)c(NC(=O)c4ccc(C(*)=O)cc4)c(-c4ccccc4)c3)cc2)cc1-c1ccccc1 (repeat unit) | 135.00 °C
18 | *CCOCCOC(=O)CC(=O)O* (repeat unit) | -41.50 °C
19 | *Nc1ccc(Nc2ccc(C(=O)c3ccc(C(=O)c4ccc(*)cc4)cc3)cc2)cc1 (repeat unit) | 203.50 °C
20 | *c1ccc(N(c2ccc(C#N)cc2)c2ccc(N3C(=O)c4ccc(-c5ccc6c(c5)C(=O)N(*)C6=O)cc4C3=O)cc2)cc1 (repeat unit) | 358.00 °C

Row | SMILES | glass transition temperature
21 | *c1ccc2c(c1)C(=O)N(c1c(C)cc(Cc3cc(C)c(N4C(=O)c5ccc(C(*)(C(F)(F)F)C(F)(F)F)cc5C4=O)c(C(C)C)c3)cc1C(C)C)C2=O (repeat unit) | 276.00 °C
22 | *c1ccc2c(c1)C(=O)N(c1cc(C(c3ccc(O)c(N4C(=O)c5ccc(C(*)(C(F)(F)F)C(F)(F)F)cc5C4=O)c3)(C(F)(F)F)C(F)(F)F)ccc1O)C2=O (repeat unit) | 330.00 °C
23 | *CC(*)c1ccc(C)nc1 (repeat unit) | 136.00 °C
24 | *CC(*)(Cl)C(=O)OCCOc1ccc(C(=O)Oc2ccc(OCCCC)cc2)cc1 (repeat unit) | 153.00 °C
25 | *c1ccc(-c2ccc(N3C(=O)c4ccc(-c5cccc6c5C(=O)N(*)C6=O)cc4C3=O)cc2C(F)(F)F)c(C(F)(F)F)c1 (repeat unit) | 346.00 °C
26 | *CCCCCCOC(=O)Nc1ccc(Cc2ccc(NC(=O)O*)cc2)cc1 (repeat unit) | 71.00 °C
27 | *Cc1cc(COC(=O)Nc2ccc(Cc3ccc(NC(=O)O*)cc3)cc2)cc(C(C)(C)C)c1 (repeat unit) | 114.00 °C
28 | *c1ccc2c(c1)C(=O)N(c1cccc(Oc3ccc(N4C(=O)c5ccc(-c6c(-c7ccccc7)c(-c7ccccc7)c(-c7ccc(Oc8ccc(-c9c(-c%10ccccc%10)c(-c%10ccccc%10)c(*)c(-c%10ccccc%10)c9-c9ccccc9)cc8)cc7)c(-c7ccccc7)c6-c6ccccc6)cc5C4=O)cc3)c1)C2=O (repeat unit) | 309.00 °C
29 | */C=C/c1sc(-c2ccc(-c3ccc(-c4sc(/C=C/C5=CC(=C(C#N)C#N)C=C(*)O5)c(CCCCCC)c4CCCCCC)s3)s2)c(CCCCCC)c1CCCCCC (repeat unit) | 112.00 °C
30 | *CC(O)COc1ccc(C(C)(C)c2ccc(OCC(O)COc3cccc(NC(=O)C(=O)Nc4cccc(O*)c4)c3)cc2)cc1 (repeat unit) | 119.00 °C
31 | *CC(*)(C)C(=O)OCCCCCCCCCCOc1ccc(/N=N/c2ccc([N+](=O)[O-])cc2)cc1 (repeat unit) | 55.00 °C
32 | *Oc1cccc(NC(=O)c2ccc(P(=O)(c3ccccc3)c3ccc(C(=O)Nc4cccc(Oc5ccc(P(=O)(c6ccccc6)c6ccc(*)cc6)cc5)c4)cc3)cc2)c1 (repeat unit) | 235.00 °C
33 | *Oc1c(C)cc(C(C)(C)c2cc(C)c(OC(=O)CCCCCC(*)=O)c(C)c2)cc1C (repeat unit) | 84.00 °C
34 | *CCCCCCNC(=O)c1ccc(C(=O)N*)cc1 (repeat unit) | 132.50 °C
35 | *CC(*)OC(=O)C(F)(F)C(F)(F)C(F)(F)C(F)(F)F (repeat unit) | 20.00 °C
36 | *CC(*)C(=O)OCCC(F)(F)C(F)(F)C(F)(F)C(F)(F)C(F)(F)C(F)(F)F (repeat unit) | -12.00 °C
37 | *CCC[Si](*)(C)O[Si](C)(C)CCCOc1ccc(C(=O)Oc2ccc(-c3ccc(C#N)cc3)cc2)cc1 (repeat unit) | 10.10 °C
38 | *Oc1ccc(Oc2ccc(NC(=O)c3ccc(Oc4ccc(C(C)(C)c5cccc(C(C)(C)c6ccc(Oc7ccc(C(=O)Nc8ccc(*)cc8)cc7)cc6)c5)cc4)cc3)cc2)cc1 (repeat unit) | 147.00 °C
39 | *CCCOc1ccc(-c2ccc(O*)c3ccccc23)c2ccccc12 (repeat unit) | 182.00 °C
40 | *O[Si](*)(C)CCCC (repeat unit) | -115.00 °C

Row | SMILES | glass transition temperature
41 | *N=P(*)(C)c1ccccc1 (repeat unit) | 37.00 °C
42 | *O[Si](*)(C)CC[Si](OCCOC)(OCCOC)OCCOC (repeat unit) | 28.90 °C
43 | *c1ccc2c(c1)C(=O)N(c1cccc(C(=O)Nc3ccc(Oc4cccc(Oc5ccc(NC(=O)c6cccc(N7C(=O)c8ccc(C(*)(C(F)(F)F)C(F)(F)F)cc8C7=O)c6)cc5)c4)cc3)c1)C2=O (repeat unit) | 264.00 °C
44 | *Oc1ccc(Oc2ccc(OC(=O)c3cc(OCCCCC)cc(C(*)=O)c3)cc2)cc1 (repeat unit) | 126.00 °C
45 | *c1ccc(Oc2cccc(Oc3ccc(N4C(=O)c5ccc(Oc6ccc(C(=O)c7ccc(Oc8ccc9c(c8)C(=O)N(*)C9=O)cc7)cc6)cc5C4=O)cc3)c2)cc1 (repeat unit) | 194.00 °C
46 | *c1ccc(OCC2CCC(COc3ccc(N4C(=O)c5ccc(-c6ccc7c(c6)C(=O)N(*)C7=O)cc5C4=O)cc3)CC2)cc1 (repeat unit) | 254.40 °C
47 | *c1ccc(-c2ccc(C3(*)c4ccccc4-c4ccccc43)cc2)cc1 (repeat unit) | 297.00 °C
48 | *Oc1ccc(-c2ccc(NC(=O)c3cc(C(=O)Nc4ccc(-c5ccc(Oc6ccc(C(C)(C)c7ccc(*)cc7)cc6)c(C(F)(F)F)c5)cc4)cc(C(C)(C)C)c3)cc2)cc1C(F)(F)F (repeat unit) | 248.50 °C
49 | *CC(=O)Nc1ccc(Cc2ccc(NC(=O)c3ccc4c(c3)C(=O)N(*)C4=O)cc2)cc1 (repeat unit) | 266.00 °C
50 | *Oc1ccc(NC(=O)c2ccc(P(=O)(c3ccccc3)c3ccc(C(=O)Nc4ccc(*)cc4)cc3)cc2)cc1 (repeat unit) | 254.00 °C
51 | *c1ccc(Oc2ccc(C(=O)c3ccc(Oc4ccc(-c5c6c(c(*)c7ccccc57)C(=O)N(c5ccc(C(F)(F)F)cc5)C6=O)cc4)cc3)cc2)cc1 (repeat unit) | 260.00 °C
52 | *c1ccc(N(c2ccc(C#N)cc2)c2ccc(N3C(=O)c4ccc(Oc5ccc(C(C)(C)c6ccc(Oc7ccc8c(c7)C(=O)N(*)C8=O)cc6)cc5)cc4C3=O)cc2)cc1 (repeat unit) | 230.00 °C
53 | *c1ccc2c(c1)C(=O)N(c1c(C)cc(C)c(C(=O)c3cccc(N4C(=O)c5ccc(C(*)(C(F)(F)F)C(F)(F)F)cc5C4=O)c3)c1C)C2=O (repeat unit) | 280.00 °C
54 | *CC(*)OC(=O)c1ccc(C(C)C)cc1 (repeat unit) | 67.70 °C
55 | *c1ccc2c(c1)C(=O)N(c1ccc(Oc3ccc(N4C(=O)c5ccc(C(*)O[Si](C)(C)O[Si](C)(C)O[Si](C)(C)C)cc5C4=O)cc3)cc1)C2=O (repeat unit) | 167.00 °C
56 | *C(=O)NC1CCCC(*)O1 (repeat unit) | 145.00 °C
57 | *CC(*)C(=O)OCCCCCCSCC#N (repeat unit) | -59.00 °C
58 | *CC(*)(C)C(=O)OCCOC(=O)c1cc([N+](=O)[O-])cc([N+](=O)[O-])c1 (repeat unit) | 92.00 °C
59 | *Oc1ccc(-c2ccc(Oc3ccc(C(=O)c4cccc5cccc(C(=O)c6ccc(*)cc6)c45)cc3)cc2)cc1 (repeat unit) | 226.50 °C
60 | *CC(*)(C)C(=O)OCC(F)(F)C(F)(F)C(F)(F)C(F)(F)C(F)(F)C(F)(F)C(F)(F)C(F)F (repeat unit) | -15.00 °C
